In US20080009418A1, “Selective Inhibitors” (Alchemia LTD., priority 2004, published 2008):

What was measured:
Human δ-opioid (DOP) = biological target: T1, Human δ-opioid (DOP) (Homo sapiens, UniProt P41143); assay: Radioligand binding, human δ-opioid (DOP) membranes, FlashPlate, [3H]-Bremazocine; conditions: compound at 10 μM, [3H]-Bremazocine
T1 construct: purchased Perkin Elmer Biosignal
Procedure, shortened: (§1)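 Cloned human receptor membranes were coated onto FlashPlate wells and incubated with radioligand and compound (added from a 0.5 mM DMSO daughter plate) for 1 hour at room temperature in the dark. Scintillation counting gave percent inhibition, with DMSO defining total and reference ligand defining non-specific binding.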

Human κ-Opioid (KOP) = biological target: T2, Human κ-Opioid (KOP) (Homo sapiens, UniProt P41145); assay: Radioligand binding, human κ-opioid (KOP) membranes, filtration, [3H]-Diprenorphine; conditions: compound at 10 μM, [3H]-Diprenorphine
T2 construct: purchased Perkin Elmer Biosignal
T2 sequence (P41145 whole entry): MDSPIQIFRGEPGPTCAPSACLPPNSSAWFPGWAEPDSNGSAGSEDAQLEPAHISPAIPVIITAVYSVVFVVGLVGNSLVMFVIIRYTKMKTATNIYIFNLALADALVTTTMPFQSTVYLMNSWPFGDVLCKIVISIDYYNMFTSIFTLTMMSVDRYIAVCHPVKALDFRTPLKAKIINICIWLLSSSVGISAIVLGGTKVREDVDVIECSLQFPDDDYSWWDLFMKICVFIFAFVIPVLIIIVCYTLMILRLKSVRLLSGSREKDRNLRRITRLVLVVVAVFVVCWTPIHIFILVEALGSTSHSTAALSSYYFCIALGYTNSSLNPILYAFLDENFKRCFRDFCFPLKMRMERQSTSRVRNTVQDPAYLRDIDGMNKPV
Procedure, shortened: (§2)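 Membranes from cloned human receptors were incubated with compound and radioligand for 1 hour at room temperature. Bound ligand was collected on 0.3% PEI-soaked filters, washed with cold 50 mM Tris-HCl pH 7.4, and counted by scintillation. Percent inhibition was computed against DMSO totals and reference-ligand nonspecific wells.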

Human Melanocortin (MC3) = biological target: T3, Human Melanocortin (MC3) (Homo sapiens, UniProt P41968); assay: Radioligand binding, human melanocortin MC3 membranes, FlashPlate, [125I]-NDP-αMSH; conditions: compound at 10 μM, [125I]-NDP-αMSH
T3 construct: purchased Perkin Elmer Biosignal
T3 sequence (P41968 whole entry): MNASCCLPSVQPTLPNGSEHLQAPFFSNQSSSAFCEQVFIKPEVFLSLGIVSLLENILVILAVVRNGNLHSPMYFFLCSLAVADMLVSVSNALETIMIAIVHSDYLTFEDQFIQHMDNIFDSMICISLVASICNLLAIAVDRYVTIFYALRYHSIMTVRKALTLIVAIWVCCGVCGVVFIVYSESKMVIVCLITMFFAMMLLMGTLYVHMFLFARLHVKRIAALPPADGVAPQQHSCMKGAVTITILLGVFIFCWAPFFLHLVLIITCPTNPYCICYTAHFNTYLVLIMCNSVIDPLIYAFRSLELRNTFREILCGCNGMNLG
Procedure, shortened: as §1

Human Melanocortin (MC4) = biological target: T4, Human Melanocortin (MC4) (Homo sapiens, UniProt P32245); assay: Radioligand binding, human melanocortin MC4 membranes, FlashPlate, [125I]-NDP-αMSH; conditions: compound at 10 μM, [125I]-NDP-αMSH
T4 construct: purchased Perkin Elmer Biosignal
T4 sequence (P32245 whole entry): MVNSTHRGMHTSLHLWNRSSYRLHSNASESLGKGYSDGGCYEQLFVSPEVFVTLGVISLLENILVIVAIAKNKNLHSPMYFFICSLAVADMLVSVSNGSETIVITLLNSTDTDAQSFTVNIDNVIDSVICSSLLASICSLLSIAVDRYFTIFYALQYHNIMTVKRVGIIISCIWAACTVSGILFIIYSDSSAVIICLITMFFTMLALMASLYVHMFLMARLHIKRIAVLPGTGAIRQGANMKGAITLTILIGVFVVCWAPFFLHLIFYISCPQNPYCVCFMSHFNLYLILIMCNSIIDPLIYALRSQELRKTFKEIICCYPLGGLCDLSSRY
Procedure, shortened: as §1

Human melanocortin (MC5) = biological target: T5, Human melanocortin (MC5) (Homo sapiens, UniProt P33032); assay: Radioligand binding, human melanocortin MC5 membranes, FlashPlate, [125I]-NDP-αMSH; conditions: compound at 10 μM, [125I]-NDP-αMSH
T5 construct: purchased Perkin Elmer Biosignal
T5 sequence (P33032 whole entry): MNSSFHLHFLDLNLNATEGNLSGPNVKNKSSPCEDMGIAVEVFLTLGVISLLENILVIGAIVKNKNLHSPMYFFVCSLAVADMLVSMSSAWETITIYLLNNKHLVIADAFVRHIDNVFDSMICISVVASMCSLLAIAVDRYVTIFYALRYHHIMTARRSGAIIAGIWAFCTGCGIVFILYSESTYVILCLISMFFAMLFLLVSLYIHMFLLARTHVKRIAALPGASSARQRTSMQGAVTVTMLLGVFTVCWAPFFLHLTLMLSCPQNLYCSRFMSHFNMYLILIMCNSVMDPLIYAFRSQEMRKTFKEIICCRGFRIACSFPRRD
Procedure, shortened: as §1

[1] = biological target: T6, Human melanin-concentrating hormone (MCH1) (Homo sapiens, UniProt Q99705); assay: Radioligand binding, human melanin-concentrating hormone MCH1 membranes, FlashPlate, [125I]-S36057; conditions: compound at 10 μM
T6 construct: purchased Perkin Elmer Biosignal
T6 sequence (Q99705 whole entry): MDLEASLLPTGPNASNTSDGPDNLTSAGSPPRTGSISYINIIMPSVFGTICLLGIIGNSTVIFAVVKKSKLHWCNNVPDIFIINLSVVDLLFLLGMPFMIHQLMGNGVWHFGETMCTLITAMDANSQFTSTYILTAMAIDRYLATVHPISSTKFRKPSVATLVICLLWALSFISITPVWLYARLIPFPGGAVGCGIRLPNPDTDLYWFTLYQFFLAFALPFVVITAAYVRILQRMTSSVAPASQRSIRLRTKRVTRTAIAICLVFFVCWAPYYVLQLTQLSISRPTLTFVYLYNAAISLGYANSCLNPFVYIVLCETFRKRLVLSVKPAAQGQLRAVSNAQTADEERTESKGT
Procedure, shortened: as §1

Human μ-opioid (MOP) = biological target: T7, Human μ-opioid (MOP) (Homo sapiens, UniProt P35372); assay: Radioligand binding, human μ-opioid (MOP) membranes, FlashPlate, [3H]-Naloxone; conditions: compound at 10 μM, [3H]-Naloxone
T7 construct: purchased Perkin Elmer Biosignal
T7 sequence (P35372 whole entry): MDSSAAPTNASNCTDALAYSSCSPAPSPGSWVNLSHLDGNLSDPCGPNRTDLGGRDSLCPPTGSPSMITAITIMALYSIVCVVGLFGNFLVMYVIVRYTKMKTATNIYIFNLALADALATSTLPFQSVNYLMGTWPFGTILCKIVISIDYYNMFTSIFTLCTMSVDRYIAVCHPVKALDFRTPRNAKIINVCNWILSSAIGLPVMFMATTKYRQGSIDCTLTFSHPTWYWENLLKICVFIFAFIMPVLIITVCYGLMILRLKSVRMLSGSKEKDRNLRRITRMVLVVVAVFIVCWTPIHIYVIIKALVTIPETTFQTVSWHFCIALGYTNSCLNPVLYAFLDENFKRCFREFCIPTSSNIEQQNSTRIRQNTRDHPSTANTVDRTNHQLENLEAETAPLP
Procedure, shortened: as §1

Human neurokinin (NK1) = biological target: T8, Human neurokinin (NK1) (Homo sapiens, UniProt P25103); assay: Radioligand binding, human neurokinin NK1 membranes, filtration, [125I]-Substance P; conditions: compound at 10 μM, [125I]-Substance P
T8 construct: purchased Perkin Elmer Biosignal
T8 sequence (P25103 whole entry): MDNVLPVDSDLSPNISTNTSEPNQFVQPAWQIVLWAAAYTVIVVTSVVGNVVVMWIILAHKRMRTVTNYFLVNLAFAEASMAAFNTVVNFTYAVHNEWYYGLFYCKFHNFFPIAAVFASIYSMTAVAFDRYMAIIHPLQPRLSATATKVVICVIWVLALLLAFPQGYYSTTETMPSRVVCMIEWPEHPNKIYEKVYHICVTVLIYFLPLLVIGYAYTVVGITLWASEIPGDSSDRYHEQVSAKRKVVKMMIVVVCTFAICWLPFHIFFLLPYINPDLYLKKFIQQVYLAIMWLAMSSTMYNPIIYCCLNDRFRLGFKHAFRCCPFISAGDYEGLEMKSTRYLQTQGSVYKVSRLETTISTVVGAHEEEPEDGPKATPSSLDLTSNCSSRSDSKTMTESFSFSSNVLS
Procedure, shortened: as §2

[2] = biological target: T9, Human neuropeptide Y (NPY-Y1) (Homo sapiens, UniProt P25929); assay: Radioligand binding, human neuropeptide Y NPY-Y1 membranes, FlashPlate, [125I]-PYY; conditions: compound at 10 μM, [125I]-PYY
T9 construct: purchased Perkin Elmer Biosignal
T9 sequence (P25929 1-384): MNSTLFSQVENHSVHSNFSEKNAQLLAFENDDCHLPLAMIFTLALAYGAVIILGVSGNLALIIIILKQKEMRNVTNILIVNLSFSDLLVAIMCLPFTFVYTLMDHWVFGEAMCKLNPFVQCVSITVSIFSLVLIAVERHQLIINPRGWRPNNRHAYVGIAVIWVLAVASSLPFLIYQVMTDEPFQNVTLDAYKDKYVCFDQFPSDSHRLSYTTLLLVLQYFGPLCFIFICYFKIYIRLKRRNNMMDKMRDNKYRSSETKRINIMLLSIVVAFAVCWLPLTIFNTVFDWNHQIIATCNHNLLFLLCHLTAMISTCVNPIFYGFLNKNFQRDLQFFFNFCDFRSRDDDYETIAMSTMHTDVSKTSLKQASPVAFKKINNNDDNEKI
Procedure, shortened: as §1

Human opioid (ORL1) = biological target: T10, Human opioid (ORL1) (Homo sapiens, UniProt P41146); assay: Radioligand binding, human opioid ORL1 membranes, FlashPlate, [125I]-Nociceptin; conditions: compound at 10 μM, [125I]-Nociceptin
T10 construct: purchased Perkin Elmer Biosignal
T10 sequence (P41146 whole entry): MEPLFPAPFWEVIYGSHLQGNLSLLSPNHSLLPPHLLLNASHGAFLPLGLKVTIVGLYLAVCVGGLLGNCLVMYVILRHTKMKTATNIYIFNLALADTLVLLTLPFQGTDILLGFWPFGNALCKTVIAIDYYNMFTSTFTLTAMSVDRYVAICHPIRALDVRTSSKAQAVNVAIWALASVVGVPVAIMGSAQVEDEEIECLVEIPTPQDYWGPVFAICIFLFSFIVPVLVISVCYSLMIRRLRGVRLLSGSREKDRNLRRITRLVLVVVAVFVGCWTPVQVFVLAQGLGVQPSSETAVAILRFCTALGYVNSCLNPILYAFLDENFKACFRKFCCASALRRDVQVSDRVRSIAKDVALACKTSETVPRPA
Procedure, shortened: as §1

Mouse urotensin (mUR2) = biological target: T11, Mouse urotensin (mUR2) (Mus musculus, UniProt Q8VIH9); assay: Radioligand binding, mouse urotensin mUR2 membranes, FlashPlate, [125I]-Urotensin II; conditions: compound at 10 μM, [125I]-Urotensin II
T11 construct: purchased Perkin Elmer Biosignal
T11 sequence (Q8VIH9 1-385): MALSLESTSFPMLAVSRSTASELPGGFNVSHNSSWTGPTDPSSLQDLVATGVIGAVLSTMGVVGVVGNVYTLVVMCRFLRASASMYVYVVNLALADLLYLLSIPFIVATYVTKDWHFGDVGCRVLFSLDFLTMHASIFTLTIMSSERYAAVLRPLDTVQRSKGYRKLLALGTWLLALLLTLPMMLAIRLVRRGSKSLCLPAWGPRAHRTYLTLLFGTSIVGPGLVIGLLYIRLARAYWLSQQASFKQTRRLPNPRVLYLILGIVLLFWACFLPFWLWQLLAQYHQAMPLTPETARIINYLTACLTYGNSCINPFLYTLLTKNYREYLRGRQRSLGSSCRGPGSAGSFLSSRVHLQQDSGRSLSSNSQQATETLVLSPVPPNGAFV
Procedure, shortened: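 Cloned mouse urotensin (mUR2) receptor membranes from Perkin Elmer Biosignal were immobilized in FlashPlate microplates using a proprietary coating. Each well got 19.5 μl buffer, then 0.5 μl of DMSO, reference ligand, or compound. Adding 5 μl of [125I]-Urotensin II, diluted to 5× final concentration in binding buffer, started binding. Plates were sealed with TopSeal-A and incubated 1 hour at room temperature in the dark. Wells were counted for 30 seconds each on a TopCount after a 60-second delay, and percentage inhibition was calculated.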

T1 sequence (P41143 whole entry): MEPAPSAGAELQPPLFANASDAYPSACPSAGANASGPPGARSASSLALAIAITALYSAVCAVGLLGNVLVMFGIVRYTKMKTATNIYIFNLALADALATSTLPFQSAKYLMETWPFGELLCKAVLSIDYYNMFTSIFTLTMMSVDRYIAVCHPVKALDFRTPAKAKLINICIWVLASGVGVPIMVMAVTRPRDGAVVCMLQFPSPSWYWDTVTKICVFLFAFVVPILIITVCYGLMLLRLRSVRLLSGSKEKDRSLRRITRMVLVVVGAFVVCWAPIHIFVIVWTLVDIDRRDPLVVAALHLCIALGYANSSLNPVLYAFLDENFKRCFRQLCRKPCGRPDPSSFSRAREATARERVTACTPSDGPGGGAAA

| Structure (SMILES) | A1: inhibition of radioligand binding, human δ-opioid (DOP) (Human δ-opioid (DOP)) | A2: inhibition of radioligand binding, human κ-opioid (KOP) (Human κ-Opioid (KOP)) | A3: inhibition of radioligand binding, human melanocortin (MC3) (Human Melanocortin (MC3)) | A4: inhibition of radioligand binding, human melanocortin (MC4) (Human Melanocortin (MC4)) | A5: inhibition of radioligand binding, human melanocortin (MC5) (Human melanocortin (MC5)) | A6: inhibition of radioligand binding, human melanin-concentrating hormone (MCH1) ([1]; [125I]-S36057, 10 µM) | A8: inhibition of radioligand binding, human neurokinin (NK1) (Human neurokinin (NK1)) | A9: inhibition of radioligand binding, human neuropeptide Y (NPY-Y1) [2] | A10: inhibition of radioligand binding, human opioid (ORL1) (Human opioid (ORL1)) | A11: inhibition of radioligand binding, mouse urotensin (mUR2) (Mouse urotensin (mUR2)) | A7: inhibition of radioligand binding, human μ-opioid (MOP) (Human μ-opioid (MOP)) | also measured |
| --- | --- | --- | --- | --- | --- | --- | --- | --- | --- | --- | --- | --- |
| N=C(N)NCC(=O)NC1C(OCc2ccc(-c3ccccc3)cc2)OC(COCc2ccc3ccccc3c2)C(O)C1OCc1ccc2ccccc2c1 (stereo not shown) [compound 402] | – | – | – | – | – | – | – | – | – | – | – | A1: inhibition of radioligand binding (Human δ-opioid (DOP); human DOP membranes): − (“−” indicates less than 50% inhibition at 10 μM); A2: inhibition of radioligand binding (Human κ-Opioid (KOP); human KOP membranes): − (“−” indicates less than 50% inhibition at 10 μM); A3: inhibition of radioligand binding (Human Melanocortin (MC3); human MC3 membranes): + (“+” indicates greater than 50% inhibition at 10 μM); A4: inhibition of radioligand binding (Human Melanocortin (MC4); human MC4 membranes): + (“+” indicates greater than 50% inhibition at 10 μM); A5: inhibition of radioligand binding (Human melanocortin (MC5); human MC5 membranes): + (“+” indicates greater than 50% inhibition at 10 μM); A6: inhibition of radioligand binding ([1]; [125I]-S36057, human MCH1 membranes): + (“+” indicates greater than 50% inhibition at 10 μM); A7: inhibition of radioligand binding (Human μ-opioid (MOP); human MOP membranes): − (“−” indicates less than 50% inhibition at 10 μM); A8: inhibition of radioligand binding (Human neurokinin (NK1); human NK1 membranes): + (“+” indicates greater than 50% inhibition at 10 μM); A9: inhibition of radioligand binding ([2]; human NPY-Y1 membranes): − (“−” indicates less than 50% inhibition at 10 μM); A10: inhibition of radioligand binding (Human opioid (ORL1); human ORL1 membranes): + (“+” indicates greater than 50% inhibition at 10 μM); A11: inhibition of radioligand binding (Mouse urotensin (mUR2); mouse mUR2 membranes): − (“−” indicates less than 50% inhibition at 10 μM) |
| NCCCC(=O)NC1C(OCc2ccc(Cl)cc2)OC(COCc2ccc(Cl)cc2)C(O)C1OCc1ccc2ccccc2c1 (single isomer, unassigned) [compound 499] | − (“−” indicates less than 50% inhibition at 10 μM) | − (“−” indicates less than 50% inhibition at 10 μM) | + (“+” indicates greater than 50% inhibition at 10 μM) | + (“+” indicates greater than 50% inhibition at 10 μM) | + (“+” indicates greater than 50% inhibition at 10 μM) | − (“−” indicates less than 50% inhibition at 10 μM) | + (“+” indicates greater than 50% inhibition at 10 μM) | − (“−” indicates less than 50% inhibition at 10 μM) | + (“+” indicates greater than 50% inhibition at 10 μM) | − (“−” indicates less than 50% inhibition at 10 μM) | – | A7: inhibition of radioligand binding, human μ-opioid (MOP) (Human μ-opioid (MOP); 10 µM): − (“−” indicates less than 50% inhibition at 10 μM) |
| CO[C@H]1[C@H](O)[C@@H](COCc2ccc3ccccc3c2)OC(OCCc2ccccc2)[C@@H]1NC(=O)CCNC(=N)N (stereo partly shown) [compound 114] | – | – | – | – | – | – | – | – | – | – | – | A1 radioligand binding, percentage inhibition (Human δ-opioid (DOP)): − (“−” indicates less than 50% inhibition at 10 μM); A2 radioligand binding, percentage inhibition (Human κ-Opioid (KOP)): + (“+” indicates greater than 50% inhibition at 10 μM); A3 radioligand binding, percentage inhibition (Human Melanocortin (MC3)): − (“−” indicates less than 50% inhibition at 10 μM); A4 radioligand binding, percentage inhibition (Human Melanocortin (MC4)): + (“+” indicates greater than 50% inhibition at 10 μM); A5 radioligand binding, percentage inhibition (Human melanocortin (MC5)): + (“+” indicates greater than 50% inhibition at 10 μM); A6 radioligand binding, percentage inhibition ([1]; [125I]-S36057): − (“−” indicates less than 50% inhibition at 10 μM); A7 radioligand binding, percentage inhibition (Human μ-opioid (MOP)): − (“−” indicates less than 50% inhibition at 10 μM); A8 radioligand binding, percentage inhibition (Human neurokinin (NK1)): + (“+” indicates greater than 50% inhibition at 10 μM); A9 radioligand binding, percentage inhibition [2]: − (“−” indicates less than 50% inhibition at 10 μM); A10 radioligand binding, percentage inhibition (Human opioid (ORL1)): − (“−” indicates less than 50% inhibition at 10 μM); A11 radioligand binding, percentage inhibition (Mouse urotensin (mUR2)): − (“−” indicates less than 50% inhibition at 10 μM) |
| N=C(N)NCC(=O)N[C@H]1C(OCc2ccc(Cl)cc2)O[C@H](COCc2ccccc2)[C@@H](O)[C@@H]1OCc1ccc(-c2ccccc2)cc1 (stereo partly shown) [compound 518] | − (“−” indicates less than 50% inhibition at 10 μM) | − (“−” indicates less than 50% inhibition at 10 μM) | – | – | – | − (“−” indicates less than 50% inhibition at 10 μM) | + (“+” indicates greater than 50% inhibition at 10 μM) | − (“−” indicates less than 50% inhibition at 10 μM) | − (“−” indicates less than 50% inhibition at 10 μM) | − (“−” indicates less than 50% inhibition at 10 μM) | − (“−” indicates less than 50% inhibition at 10 μM) | A3: inhibition of radioligand binding, human melanocortin (MC3) (Human Melanocortin (MC3); 10 µM): − (“−” indicates less than 50% inhibition at 10 μM); A4: inhibition of radioligand binding, human melanocortin (MC4) (Human Melanocortin (MC4); 10 µM): − (“−” indicates less than 50% inhibition at 10 μM); A5: inhibition of radioligand binding, human melanocortin (MC5) (Human melanocortin (MC5); 10 µM): − (“−” indicates less than 50% inhibition at 10 μM) |
| NCCC(=O)NC1C(OCc2ccccc2)OC(COCc2ccc3ccccc3c2)C(O)C1OCc1ccc(Cl)cc1 (stereo not shown) [compound 364] | − (“−” indicates less than 50% inhibition at 10 μM) | − (“−” indicates less than 50% inhibition at 10 μM) | + (“+” indicates greater than 50% inhibition at 10 μM) | + (“+” indicates greater than 50% inhibition at 10 μM) | + (“+” indicates greater than 50% inhibition at 10 μM) | – | + (“+” indicates greater than 50% inhibition at 10 μM) | − (“−” indicates less than 50% inhibition at 10 μM) | − (“−” indicates less than 50% inhibition at 10 μM) | − (“−” indicates less than 50% inhibition at 10 μM) | − (“−” indicates less than 50% inhibition at 10 μM) | A6: inhibition of radioligand binding, human melanin-concentrating hormone (MCH1) ([1]; [125I]-S36057): − (“−” indicates less than 50% inhibition at 10 μM) |
